This note sets out measurements from patent US20020019527A1 (priority 2000, published 2002).

The target in the assay is T1, Farnesyltransferase (FTase) (Bos taurus, UniProt P29702+P49355).
T1 construct: precipitation from a beef brain homogenate; from tissue; host or cells: bovine brain
Description: Farnesyltransferase inhibition (scintillation proximity assay, [3H]-FPP / biotin-K-ras peptide). Type of assay: biochemical, bovine. Here is the method:
Farnesyltransferase (FTase) or geranylgeranyltransferase I (GGTase I) fractions were isolated from bovine brains and purified by a series of methods which separate FTase from GGTase I and GGTase I from GGTase II. The methods involved a partial purification of all three enzymes by precipitation from a beef brain homogenate with 30% to 50% saturated […] followed by chromatography on DEAE Sepharose. […] The catalytic purity of each enzyme was assayed separately with substrate acceptor proteins specific for that enzyme. After quickly freezing in liquid nitrogen, the various prenyl transferases were stored at −80° C.
The quenched reactions stood for 1 hour before analysis in a Packard TopCount scintillation counter. Purified compounds were dissolved in 100% ethanol and diluted 10-fold into the assay.
On the technique in general: In a scintillation proximity assay essentially only radioactivity close to the scintillant gives light.

Setting [1] is: compound at 10^−6 M, bovine FTase, 37° C., 30 minutes.

Where a name gives a salt, the structure may show the parent alone. Read-outs that look alike come from different tables or passages of the source.

T1 sequence (P49355 whole entry, one chain of several): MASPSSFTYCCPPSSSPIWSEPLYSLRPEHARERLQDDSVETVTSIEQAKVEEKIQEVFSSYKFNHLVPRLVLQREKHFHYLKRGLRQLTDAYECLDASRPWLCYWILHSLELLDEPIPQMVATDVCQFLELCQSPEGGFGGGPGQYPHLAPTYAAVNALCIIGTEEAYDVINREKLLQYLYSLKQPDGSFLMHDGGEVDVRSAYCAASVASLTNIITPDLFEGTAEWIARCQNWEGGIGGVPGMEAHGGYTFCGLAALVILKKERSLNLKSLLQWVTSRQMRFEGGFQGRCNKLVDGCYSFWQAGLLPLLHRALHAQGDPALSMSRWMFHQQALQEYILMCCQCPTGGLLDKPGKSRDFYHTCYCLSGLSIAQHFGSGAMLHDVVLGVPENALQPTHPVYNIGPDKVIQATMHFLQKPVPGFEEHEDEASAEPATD

For the compound `N#Cc1ccc(COC(c2ccc(C#N)c(-c3cccc4ccccc34)c2)c2cnc[nH]2)cc1` (stereo not drawn) [Example 46, 4-(((4-cyanobenzyl)oxy)(1H-imidazol-5-yl)methyl)-2-(1-naphthyl)benzonitrile hydrochloride], under setting [1], at 1 µM the inhibition was 100%.
Still for that read-out and setting: with `CCCCN(Cc1ccc(C#N)cc1)C(c1ccc(C#N)c(-c2cccc3ccccc23)c1)c1cncn1C` (stereo not drawn) [Example 30, 4-((butyl(4-cyanobenzyl)amino)(1-methyl-1H-imidazol-5-yl)methyl)-2-(1-naphthyl)benzonitrile dihydrochloride] the figure was 100%.
On to `Cn1cncc1CN(Cc1ccc(C(=O)O)cc1)c1ccc(C#N)c(-c2cccc3ccccc23)c1` [Example 269, 4-((4-cyano((1-methyl-1H-imidazol-5-yl)methyl)-3-(1-naphthyl)anilino)methyl)benzoic acid], for which the % Inhibition – broadly, the change of the read-out against control, counted positive when it falls – at 10^−6M under setting [1] is on record as 100%.
On to `Cc1ccccc1-c1cc(C(NCc2ccccc2)c2cncn2C)ccc1C#N` (stereo not drawn) [Example 23, 5-((benzylamino)(1-methy-1H-imidazol-5-yl)methyl)-2′-methyl(1,1′-biphenyl)-2-carbonitrile], for which the “% Inhibition at 10^−6M” value under setting [1] is reported as 100%.
As for `C=CCN(Cc1cncn1C)c1ccc(C#N)c(-c2cccc3ccccc23)c1` [Example 228, 4-(allyl( (1-methyl-1H-imidazol-5-yl)methyl)amino)-2-(1-naphthyl)benzonitrile], under setting [1], at 1 µM the inhibition was 100%.
`Cc1ccccc1-c1cc(C(NCc2ccc([N+](=O)[O-])cc2)c2cncn2C)ccc1C#N` (stereo not drawn) [Example 12]: the “% Inhibition at 10^−6M” value turned out to be 100%.
For the compound `Cn1cncc1C(OCc1ccc(C#N)cc1)c1ccc(C#N)c(-c2ccnc3ccccc23)c1` (stereo not drawn) [Example 19, 4-(((4-cyanobenzyl)oxy)(1-methyl-1H-imidazol-5-yl)methyl)-2-(4-quinolinyl)benzonitrile dihydrochloride], under setting [1], the inhibition (commonly the change of the read-out against control, counted positive when it falls) at 1 µM is 100%.
Same read-out and setting: with `CNC(=O)c1ccc(CNC(c2ccc(C#N)c(-c3cccc4ccccc34)c2)c2cncn2C)cc1` (stereo not drawn) [Example 48, 4-((((4-cyano-3-(1-naphthyl)phenyl)(1-methyl-1H-imidazol-5-yl)methyl)amino)methyl)-N-methylbenzamide dihydrochloride] the figure was 100%; with `Cn1cncc1C(OCc1ccc(S(C)(=O)=O)cc1)c1ccc(C#N)c(-c2cccc3ccccc23)c1` (stereo not drawn) [Example 73, 4-((1-methyl-1H-imidazol-5-yl)((4-(methylsulfonyl)benzyl)oxy)methyl)-2-(1-naphthyl)benzonitrile hydrochloride], 100%; with `CCOC(=O)N1CCC(NC(c2ccc(C#N)c(-c3cccc4ccccc34)c2)c2cncn2C)CC1` (stereo not drawn) [Example 50, ethyl 4-(((4-cyano-3-(1-naphthyl)phenyl)(1-methyl-1H-imidazol-5-yl)methyl)amino)-1-piperidinecarboxylate dihydrochloride], 100%.
On to `Cc1ccccc1-c1cc(C(OCc2ccc([N+](=O)[O-])cc2)c2cncn2C)ccc1C#N.Cl` (stereo not drawn) [Example 121], for which the “% Inhibition at 10^−6M” value turned out to be 96%.
Regarding `Cc1ccccc1-c1cc(C(OCc2c(C)c(C)cc(C)c2C)c2cncn2C)ccc1C#N.Cl` (stereo not drawn) [Example 179], the “% Inhibition at 10^−6M” value stood at 93%.
For the compound `Cc1ccccc1-c1cc(C(OCc2cccc(Cl)c2)c2cncn2C)ccc1C#N` (stereo not drawn) [Example 120, 5-(((3-chlorobenzyl)oxy)(1-methyl-1H-imidazol-5-yl)methyl)-2′-methyl(1,1′-biphenyl)-2-carbonitrile hydrochloride], the inhibition at 1 µM under setting [1] is 90%.
Regarding `Cc1ccccc1-c1cc(C(OCc2noc(-c3cccc(C(F)(F)F)c3)n2)c2cncn2C)ccc1C#N.Cl` (stereo not drawn) [Example 169, 2′-methyl-5-((1,1-methyl-1H-imidazol-5-yl)((5-(3-(trifluoromethyl)phenyl)-1,2,4-oxadiazol-3-yl)methoxy)methyl)(1,1′-biphenyl)-2-carbonitrile hydrochloride], the “% Inhibition at 10^−6M” value stood at 70%.
In the case of `Cn1cncc1C(OCc1ccc(C#N)cc1)c1cnc(C#N)c(-c2cccc3ccccc23)c1` (stereo not drawn) [Example 275, 5-(((4-cyanobenzyl)oxy)(1-methyl-1H-imidazol-5-yl)methyl)-3-(1-naphthyl)-2-pyridinecarbonitrile dihydrochloride], testing at 1 µM under setting [1] gave an inhibition of 100%.
Regarding `Cl.Cn1cncc1C(OCc1ccc([N+](=O)[O-])cc1)c1ccc(C#N)c(-c2cccc3ccccc23)c1` (stereo not drawn) [Example 59, 4-((1-methyl-1H-imidazol-5-yl)((4-nitrobenzyl)oxy)methyl)-2-(1,1-naphthyl)benzonitrile hydrochloride], the “% Inhibition at 10^−6M” value under setting [1] came to 100%.
`Cn1cncc1C(NCc1ccc(C(N)=O)cc1)c1ccc(C#N)c(-c2cccc3ccccc23)c1` (stereo not drawn) [Example 58, 4-((((4-cyano-3-(1-naphthyl)phenyl)(1-methyl-1H-imidazol-5-yl)methyl)amino)methyl)benzamide dihydrochloride] displayed an inhibition at 1 µM under setting [1] of 100%.
Same read-out and setting: with `Cc1ccccc1-c1cc(C(O)(CCc2ccccc2)c2cncn2C)ccc1C#N` (stereo not drawn) [Example 110, 5-(1-hydroxy-1-(1-methyl-1H-imidazol-5-yl)-3-phenylpropyl)-2′-methyl(1,1′-biphenyl)-2-carbonitrile] the figure was 96%.
As to `Cc1ccccc1-c1cc(C(c2cncn2C)N2CCN(c3cccc(OC(F)(F)F)c3)C(=O)C2)ccc1C#N.Cl.Cl` (stereo not drawn) [Example 15], the “% Inhibition at 10^−6M” value was 100%.
As for `Cc1ccccc1-c1cc(C(OCc2csc(-c3ccc(Cl)cc3)n2)c2cncn2C)ccc1C#N` (stereo not drawn) [Example 162, 5-(((2-(4-chlorophenyl)-1,3-thiazol-4-yl)methoxy)(1-methyl-1H-imidazol-5-yl)methyl)-2′-methyl(1,1′-biphenyl)-2-carbonitrile hydrochloride], under setting [1], the inhibition at 1 µM is 94%.
On to `Cc1ccccc1-c1cc(C(OCc2ccc(C(C)C)cc2)c2cncn2C)ccc1C#N` (stereo not drawn) [Example 153, 5-(((4-isopropylbenzyl)oxy)(1-methyl-1H-imidazol-5-yl)methyl)-2′-methyl(1,1′-biphenyl)-2-carbonitrile hydrochloride], for which, under setting [1], the inhibition at 1 µM amounted to 92%.
On the same count and under the same terms, for `Cn1cncc1C(OCc1ccc(C(F)(F)F)cc1)c1ccc(C#N)c(-c2cccc3ccccc23)c1` (stereo not drawn) [Example 65, 4-((1-methyl-1H-imidazol-5-yl)((4-(trifluoromethyl)benzyl)oxy)methyl)-2-(1-naphthyl)benzonitrile hydrochloride] the value was 100%; for `Cc1ccccc1-c1cc(C(OCc2ccc(-c3ccccc3C#N)cc2)c2cncn2C)ccc1C#N` (stereo not drawn) [Example 145, 5-(((2′-cyano(1,1′-biphenyl)-4-yl)methoxy)(1-methyl-1H-imidazol-5-yl)methyl)-2′-methyl(1,1′-biphenyl)-2-carbonitrile hydrochloride], 97%; for `Cc1ccccc1-c1cc(N(Cc2cccc(C#N)c2)Cc2cncn2C)ccc1C#N` [Example 237, 5-((3-cyanobenzyl)((1-methyl-1H-imidazol-5-yl)methyl)amino)-2′-methyl(1,1′-biphenyl)-2-carbonitrile], 100%.
For `Cc1ccccc1-c1cc(C(OCc2ccc(OC(F)(F)F)cc2)c2cncn2C)ccc1C#N.Cl` (stereo not drawn) [Example 180], the “% Inhibition at 10^−6M” value turned out to be 95%.
Under setting [1], `Cn1cncc1C(OCc1ccc(C#N)c(F)c1)c1ccc(C#N)c(-c2cccc3ccccc23)c1` (stereo not drawn) [Example 77, 4-(((4-cyano-3-fluorobenzyl)oxy)(1-methyl-1H-imidazol-5-yl)methyl)-2-(1-naphthyl)benzonitrile hydrochloride] returned an inhibition at 1 µM of 100%.
`Cc1ccccc1-c1cc(C(OCc2c(F)cccc2F)c2cncn2C)ccc1C#N` (stereo not drawn) [Example 186, 5-(((2,6-difluorobenzyl)oxy)(1-methyl-1H-imidazol-5-yl)methyl)-2′-methyl(1,1′-biphenyl)-2-carbonitrile hydrochloride] displayed an inhibition at 1 µM under setting [1] of 85%.
Compound `Cc1ccccc1-c1cc(C(OCc2cccc(F)c2)c2cncn2C)ccc1C#N` (stereo not drawn) [Example 136, 5-(((3-fluorobenzyl)oxy)(1-methyl-1H-imidazol-5-yl)methyl)-2′-methyl(1,1′-biphenyl)-2-carbonitrile hydrochloride] returned an inhibition at 1 µM under setting [1] of 95%.
Still for that read-out and setting: with `Cn1cncc1CN(c1ccc(C#N)c(-c2cccc3ccccc23)c1)S(=O)(=O)c1ccccc1` [Example 267, N-(4-cyano-3-(1-naphthyl)phenyl)-N-((1-methyl-1H-imidazol-5-yl)methyl)benzenesulfonamide] the figure was 100%; with `Cn1cncc1C(OCc1ccc(C#N)cc1)c1ccc(C#N)c(-c2cccc3cccnc23)c1` (stereo not drawn) [Example 18, 4-(((4-cyanobenzyl)oxy)(1-methyl-1H-imidazol-5-yl)methyl)-2-(8-quinolinyl)benzonitrile dihydrochloride], 100%; with `Cc1ccccc1-c1cc(C(OCc2csc(-c3ccc(C(F)(F)F)cc3)n2)c2cncn2C)ccc1C#N` (stereo not drawn) [Example 175, 2′-methyl-5-((1-methyl-1H-imidazol-5-yl)((2-(4-(trifluoromethyl)phenyl)-1,3-thiazol-4-yl)methoxy)methyl)(1,1′-biphenyl)-2-carbonitrile hydrochloride], 75%.
For the compound `Cc1ccccc1-c1cc(N(Cc2ccccc2)Cc2cncn2C)ccc1C#N` [Example 226, 5-(benzyl((1-methyl-1H-imidazol-5-yl)methyl)amino)-2′-methyl(1,1-biphenyl)-2-carbonitrile], under setting [1], the inhibition at 1 µM turned out to be 100%.
Same read-out and setting: for `Cn1cncc1C(OCc1ccccc1)c1ccc(C#N)c(-c2ccsc2)c1` (stereo not drawn) [Example 90, 4-((benzyloxy)(1-methyl-1H-imidazol-5-yl)methyl)-2-(3-thienyl)benzonitrile hydrochloride] the value was 90%.
